{
  "source": "patent US4717731A",
  "about": "“7H thieno[2,3-a]quinolizines, useful as α2 -andrenoceptor antagonist” (John Wyeth & Brother Limited, priority 1984, dated 1988)",
  "key": {"[1]": {"system": "α2 -adrenoceptor", "assay": "α2-adrenoceptor antagonistic activity on the rat field stimulated vas deferens preparation (vs clonidine)", "details": "for α2 /α1 selectivity [antilog of (α2 pA2 -α1 pA2)]: from vas deferens α2 pA2 and anococcygeus α1 pA2; for pA2 for α2 -adrenoceptor antagonistic activity: rat field stimulated vas deferens, agonist clonidine, Schild plot, 90 min", "protocol": "The compounds of the invention are tested for α2 -adrenoceptor antagonistic activity on the rat field stimulated vas deferens preparation using a modification of the method of Drew, Eur. J. Pharmac., 1977, 42, 123-130. The procedure is described below.\nDesheathed vasa deferentia from sexually mature rats were suspended in a 6 ml organ bath in Krebs solution at 37° and bubbled with 5% CO2 in oxygen. Platinum ring electrodes were positioned above and below the tissue for field stimulation, the stimulus parameters being 0.1 Hz 1 ms pulse width at supramaximal voltage. Twitch responses were recorded isotonically with a 0.5 g loading. Clonidine hydrochloride was used as the α-adrenoceptor agonist and cumulative concentration-response curves were constructed for the inhibition of twitch obtained with clonidine in the range 0.125 to 4 ng ml^-1. After washing out clonidine, the twitch response quickly recovered and an antagonist was then introduced into the Krebs reservoir. Clonidine concentration-response curves were repeated 90 min after introduction of the antagonist. The concentration of clonidine producing 50% inhibition of twitch before and after introduction of antagonist were obtained and the dose-ratio for clonidine was calculated. Various concentrations of the antagonists were used.\nChemother., 1959, 14, 48-58 and the values of pA2 and slope were calculated."}, "[2]": {"system": "α1 -adrenoceptors", "assay": "α1 antagonistic activity on the isolated anococcygeus muscle of the rat (vs phenylephrine or methoxamine)", "details": "agonist phenylephrine or methoxamine, Schild method, 30 min", "excerpt": "The compounds of the invention generally antagonise the α2 -adrenoceptors to a much greater extent than the α1 -adrenoceptors. The α1 antagonistic activity can be evaluated by a number of different methods. One method involves assessing the activity on the isolated anococcygeus muscle of the rat. The method is based on that of Gillespie, Br.J.Pharmac., 1972, 45, 404-416. In the procedure male rats (250-360 g) are killed by a blow on the head and bled. The two anococcygeus muscles are removed from their position in the midline of the pelvic cavity, where they arise from the upper coccygeal vertebrae. The muscles are suspended in 5 ml organ baths in Krebs solution containing 10^-4 M ascorbic acid; to prevent drug oxidation. The tissues are gassed with a 95% oxygen, 5% CO2 mixture and maintained at 37°. Longitudinal muscle contractions are recorded using isotonic transducers. Cumulative dose response curves are then obtained to phenylephrine or in some cases methoxamine, both agents being […] alpha adrenoceptor agonists. The concentration range of phenylephrine or methoxamine used is 0.02 to 0.8 μg.ml^-1. The agonist is then washed from the bath and the test drug added to the bathing medium at a concentration of 10^-6 M. After 30 min equilibration with the test drug a further agonist dose response curve is obtained. […]"}},
  "data": [
    {"molecule": "CCS(=O)(=O)NCCN([C@@H]1CCN2CCc3ccsc3[C@@H]2C1)S(=O)(=O)CC", "note": "(relative stereo) [Example 5, N-(4,5,8,9α,10,10aα-Hexahydro-7H-thieno[2,3-a]quinolizin-9-yl)-N-(2-ethanesulphonamidoethyl)ethane sulphonamide]", "values": [
      {"measurement": "α2 /α1 selectivity [antilog of (α2 pA2 -α1 pA2)]", "setting": "[1]", "result": 132},
      {"measurement": "pA2 for α2 -adrenoceptor antagonistic activity", "setting": "[1]", "result": 7.31},
      {"measurement": "pA2 values for α1 antagonistic activity", "setting": "[2]", "result": 5.18}
    ]},
    {"molecule": "CCCS(=O)(=O)N(C)[C@@H]1CCN2CCc3ccsc3[C@@H]2C1", "note": "(relative stereo) [Example 2, N-(4,5,8,9,10,10aα-hexahydro-7H-thieno[2,3-a]quinolizin-9β-yl)-N-methylpropanesulphonamide]", "values": [
      {"measurement": "α2 /α1 selectivity [antilog of (α2 pA2 -α1 pA2)]", "setting": "[1]", "result": 40},
      {"measurement": "pA2 for α2 -adrenoceptor antagonistic activity", "setting": "[1]", "result": 7.5},
      {"measurement": "pA2 values for α1 antagonistic activity", "setting": "[2]", "result": 5.9}
    ]}
  ]
}
